Data published in patent US8952024B2, “Herbicidal pyrimidone derivatives” (E I du Pont de Nemours and Company, priority 2009, dated 2015).

Assays:
Experiment in all cases: Test C plant response
Format in all cases: in vivo
Conditions in all cases: Postemergence, scale 0 to 100
[1] = tested on: spring wheat (Triticum aestivum)
In short: (§1)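 Efficacy is a visual percent-control score (0 none, 100 complete), judged against controls 14 days after application. Compounds go on in a non-phytotoxic solvent carrier with surfactant. A dash marks a missing result.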

[2] = tested on: deadnettle (henbit deadnettle, Lamium amplexicaule)
In short: as §1

[3] = tested on: wild radish (Raphanus raphanistrum)
In short: as §1

[4] = tested on: lambsquarters (Chenopodium album)
In short: as §1

[5] = tested on: chickweed (common chickweed, Stellaria media)
In short: as §1

[6] = tested on: winter barley (Hordeum vulgare)
In short: as §1

[7] = tested on: Italian ryegrass (Lolium multiflorum)
In short: as §1

[8] = tested on: canarygrass (Phalaris minor)
In short: as §1

[9] = tested on: Russian thistle (Salsola iberica)
In short: as §1

[10] = tested on: bromegrass (downy bromegrass, Bromus tectorum)
In short: as §1

[11] = tested on: windgrass (Apera spica-venti)
In short: as §1

[12] = tested on: field poppy (Papaver rhoeas)
In short: as §1

[13] = tested on: galium (catchweed bedstraw, Galium aparine)
In short: as §1

[14] = tested on: wild mustard (Sinapis arvensis)
In short: as §1

[15] = tested on: blackgrass (Alopecurus myosuroides)
In short: as §1

[16] = tested on: kochia (Kochia scoparia)
In short: as §1

3-cyclohexyl-5-[(2-hydroxy-6-oxo-1-cyclohexen-1-yl)carbonyl]-2-phenyl-4(3H)-pyrimidinone [Compound 128]
Plant response rating: Wheat, Spring ([1]; 31 g ai/ha): 20 | Plant response rating: Wheat, Spring ([1]; 16 g ai/ha): 5 | Plant response rating: Wheat, Spring ([1]; 62 g ai/ha): 35 | Plant response rating: Wheat, Spring ([1]; 125 g ai/ha): 40 | Plant response rating: Deadnettle ([2]; 31 g ai/ha): 98 | Plant response rating: Deadnettle ([2]; 16 g ai/ha): 95 | Plant response rating: Deadnettle ([2]; 62 g ai/ha): 100 | Plant response rating: Deadnettle ([2]; 125 g ai/ha): 100 | Plant response rating: Radish, Wild ([3]; 31 g ai/ha): 95 | Plant response rating: Radish, Wild ([3]; 16 g ai/ha): 95 | Plant response rating: Radish, Wild ([3]; 62 g ai/ha): 95 | Plant response rating: Radish, Wild ([3]; 125 g ai/ha): 95 | Plant response rating: Lambsquarters ([4]; 31 g ai/ha): 98 | Plant response rating: Lambsquarters ([4]; 16 g ai/ha): 98 | Plant response rating: Lambsquarters ([4]; 62 g ai/ha): 98 | Plant response rating: Lambsquarters ([4]; 125 g ai/ha): 100 | Plant response rating: Chickweed ([5]; 31 g ai/ha): 95 | Plant response rating: Chickweed ([5]; 16 g ai/ha): 95 | Plant response rating: Chickweed ([5]; 62 g ai/ha): 98 | Plant response rating: Chickweed ([5]; 125 g ai/ha): 100 | Plant response rating: Barley, Winter ([6]; 31 g ai/ha): 20 | Plant response rating: Barley, Winter ([6]; 16 g ai/ha): 0 | Plant response rating: Barley, Winter ([6]; 62 g ai/ha): 40 | Plant response rating: Barley, Winter ([6]; 125 g ai/ha): 60 | Plant response rating: Ryegrass, Italian ([7]; 31 g ai/ha): 5 | Plant response rating: Ryegrass, Italian ([7]; 16 g ai/ha): 0 | Plant response rating: Ryegrass, Italian ([7]; 62 g ai/ha): 30 | Plant response rating: Ryegrass, Italian ([7]; 125 g ai/ha): 30 | Plant response rating: Canarygrass ([8]; 31 g ai/ha): 5 | Plant response rating: Canarygrass ([8]; 16 g ai/ha): 5 | Plant response rating: Canarygrass ([8]; 62 g ai/ha): 10 | Plant response rating: Canarygrass ([8]; 125 g ai/ha): 10 | Plant response rating: Russian Thistle ([9]; 31 g ai/ha): 80 | Plant response rating: Russian Thistle ([9]; 16 g ai/ha): 80 | Plant response rating: Russian Thistle ([9]; 62 g ai/ha): 95 | Plant response rating: Russian Thistle ([9]; 125 g ai/ha): 95 | Plant response rating: Bromegrass, Downy ([10]; 31 g ai/ha): 50 | Plant response rating: Bromegrass, Downy ([10]; 16 g ai/ha): 30 | Plant response rating: Bromegrass, Downy ([10]; 62 g ai/ha): 65 | Plant response rating: Bromegrass, Downy ([10]; 125 g ai/ha): 65 | Plant response rating: Windgrass ([11]; 31 g ai/ha): 70 | Plant response rating: Windgrass ([11]; 16 g ai/ha): 60 | Plant response rating: Windgrass ([11]; 62 g ai/ha): 85 | Plant response rating: Windgrass ([11]; 125 g ai/ha): 95 | Plant response rating: Field Poppy ([12]; 31 g ai/ha): 30 | Plant response rating: Field Poppy ([12]; 16 g ai/ha): 20 | Plant response rating: Field Poppy ([12]; 62 g ai/ha): 40 | Plant response rating: Field Poppy ([12]; 125 g ai/ha): 70 | Plant response rating: Galium ([13]; 31 g ai/ha): 30 | Plant response rating: Galium ([13]; 16 g ai/ha): 20 | Plant response rating: Galium ([13]; 62 g ai/ha): 65 | Plant response rating: Galium ([13]; 125 g ai/ha): 65 | Plant response rating: Mustard, Wild ([14]; 31 g ai/ha): 98 | Plant response rating: Mustard, Wild ([14]; 16 g ai/ha): 98 | Plant response rating: Mustard, Wild ([14]; 62 g ai/ha): 98 | Plant response rating: Mustard, Wild ([14]; 125 g ai/ha): 100 | Plant response rating: Blackgrass ([15]; 31 g ai/ha): 20 | Plant response rating: Blackgrass ([15]; 16 g ai/ha): 20 | Plant response rating: Blackgrass ([15]; 62 g ai/ha): 35 | Plant response rating: Blackgrass ([15]; 125 g ai/ha): 35 | Plant response rating: Kochia ([16]; 31 g ai/ha): 90 | Plant response rating: Kochia ([16]; 16 g ai/ha): 70 | Plant response rating: Kochia ([16]; 62 g ai/ha): 95 | Plant response rating: Kochia ([16]; 125 g ai/ha): 98
